Laboratory results: patent US11826430B2, “Anti-cancer nuclear hormone receptor-targeting compounds” (Nuvation Bio Inc., priority 2019, dated 2023)

How the values were obtained:
[1] = molecular target: Human recombinant PARP2 (Homo sapiens (Human), UniProt Q9UGN5); test: RBC HotSpot PARP2 radioisotope-based filter binding assay; conditions: read-out: PARP2 IC50; 2.5 nM PARP2, histone H3, 10 μM 32P-NAD+
Procedure: (§3) RBC HotSpot Poly(ADP-ribose) Polymerases 1 (PARP1) and Poly(ADP-ribose) Polymerases 2 (PARP2) Assays: The assay was conducted at Reaction Biology Corporation (RBC; Malvern, PA). The assay principle is radioisotope-based filter binding assay where incorporation of radioisotope-labeled NAD^+ into the substrate captured on filter is detected after washout free NAD^+. Data were analyzed using Excel and GraphPad Prism software for IC50 curve fits. Each assay was conducted with PJ34 as a positive control. PARP1 assay: Human recombinant PARP1 at a final concentration of 2.5 nM was combined with histone H4 (20 μM) and test articles at various concentrations in reaction buffer (50 mM Tris-HCL, pH 8.0, 50 mM NaCl, 10 mM MgCl2, 1 mM DTT, 1% DMSO, and 20 μg/mL activated DNA). The solution was inoculated for 20 min at room temperature and the reaction initiated by adding [adenylate-^32P]-Nicotinamide Adenine Dinucleotide, ^32P-NAD^+ at a final concentration of 10 μM. After incubation for 2 hrs at room temperature, the reaction mixture was filtered and washed with 0.75% phosphoric acid for radioactivity detection. • ii. PARP2 assay: Human recombinant PARP2 at a final concentration of 2.5 nM was combined with histone H3 (20 μM) and test articles at various concentrations in reaction buffer (50 mM Tris-HCL, pH 8.0, 50 mM NaCl, 10 mM MgCl2, 1 mM DTT, 1% DMSO, and 20 μg/mL activated DNA). The solution was inoculated for 20 min at room temperature and the reaction was initiated by adding [adenylate-^32P]-Nicotinamide Adenine Dinucleotide, ^32P-NAD^+ at a final concentration of 10 μM. After incubation for 2 hrs at room temperature, the reaction mixture was filtered and washed with 0.75% phosphoric acid for radioactivity detection. b. AR binding assay: AR in LNCaP cytosol was used for determining the binding affinity of test articles and the reference compound—progesterone (Sigma, Cat: E2785, St. Louis, MO). IC50s were determined using 8 concentrations/compound. Cytosol was plated at 200 μg/well (100 μL) into a 96-well conical polypropylene plate (Agilent, Cat: 5042-1385, Santa Clara, CA) and mixed with 3 μL of test compound. After adding 100 μL of ^3H-methyltrienolone (PerkinElmer, Cat: NET590250UC, San Jose, CA), the plate was sealed and shaken at 300 rpm at 4° C. for 24 hours. Post incubation, 100 μL of radioligand adsorption buffer containing 10 mM Tris-HCl, pH 7.4; 1.5 mM EDTA; 1 mM DTT; 0.25% charcoal; 0.0025% dextran was added to individual well. Plate was shaken for 15 min at 4° C. followed by centrifugation at 3000 rpm for 30 min at 4° C. 150 μL of supernatant was transferred into scint-tube (PerkinElmer, Cat: 6000192) and mixed with 2 mL of Ultima Gold Cocktail (PerkinElmer, Cat: 6013329). Radioactivity was counted using a TriCarb 2910 TR scintillation counter (PerkinElmer). Inhibition of the radioactivity by test articles were calculated using the equation below: % Inhibition=(1−(Assay well-Average_LC)/(Average_HC-Average_LC))×100%. IC50 values were calculated and graphed using the model “log(inhibitor) vs. response—Variable slope” included in GraphPad Prism 5 (San Diego, CA). […] Ki=IC50/(1+[L]/Kd) c.

[2] = molecular target: Human recombinant PARP1 (Homo sapiens (Human), UniProt P09874); test: RBC HotSpot PARP1 radioisotope-based filter binding assay; conditions: read-out: PARP1 IC50; 2.5 nM PARP1, histone H4, 10 μM 32P-NAD+
Procedure: as §3

[3] = molecular target: ER Alpha-LBD (GST) (Homo sapiens (Human), UniProt P03372); test: LanthaScreen TR-FRET ER Alpha Competitive Binding Assay; conditions: Fluormone ES2 Green tracer displacement; for IC50: read-out: ERα IC50
Procedure: e. Additional cell proliferation assays: Other cancer cell lines are tested in a cell proliferation assay. For example, LnCaP, PC-3, MCF-7, HCC1428, BT474, HCT-116, SK-OV-3 or OVCAR3 cancer cells are tested. Cells are cultured in medium recommended by the supplier (e.g., ATCC or JCRB Cell Bank), at 37° C. in a 5% CO2 environment. For the proliferation assay, cells are plated in the growth medium in 96 well plates. Seeding density is adjusted according to the cell type. 24 hr later, cells are treated, in triplicate or quadruplicate, with test articles prepared in a range of concentrations by series dilution of DMSO stock solutions in growth medium, and typically incubated for three to seven days, with test article-containing medium replaced after three or four days. The number of viable cells is measured using CellTiter Glo assay (CTG, Promega, Madison, WI) or similar. Cell viability data are plotted using GraphPad Prism (GraphPad Software, Inc., San Diego, CA). In addition, a nonlinear regression model with a sigmoidal dose response and variable slope within GraphPad Prism is used to calculate the IC50 value of individual test articles. Similarly, HEK-293 and HeLa calls can also be tested by methods known in the art. f. Nuclear translocation: LNCaP cells are plated on coverslips in 24 well plates in growth medium. Twenty-four hours after plating, medium is changed to RPMI+1% csFBS and the cells are maintained in this medium for two days. Medium is replaced again and the cells are treated. Cells are fixed 4 hours after treatment and the AR immunostained using AR N20 antibody (Santa Cruz Biotechnology, Santa Cruz, CA). Nucleus is stained with DAPI. Cells are imaged with a confocal microscope. g. ER binding assay: ERα binding was assessed by the LanthaScreen® TR-FRET ER Alpha Competitive Binding Assay at Thermo Fisher. In this assay, a terbium-labeled anti-GST antibody was used to indirectly label GST-tagged ER Alpha-ligand binding domain (LBD) by binding to its GST tag. Competitive binding to the ER Alpha-LBD (GST) was detected by a test compound's ability to displace a fluorescent ligand (Fluormone™ ES2 Green tracer) from the ER Alpha-LBD (GST), which results in a loss of FRET signal between the Tb-anti-GST antibody and the tracer. When running the assay, Fluormone™ ES2 Green tracer was added to ligand test compounds or solvent controls followed by addition of a mixture of the ER Alpha-LBD (GST) and terbium anti-GST antibody. After an incubation period at room temperature, the TR-FRET ratio of 520:495 emissions were calculated and used to determine the IC50 from a dose response curve of the compound. ER and PR functional assays: COS cells are transfected with 25 ng rat progesterone receptor (PR) and 250 ng GRE-LUC or 50 ng human estrogen receptor a (ER) and 250 ng ERE-LUC. Cells are also transfected with 10 ng CMV-renilla LUC in OptiMEM medium using lipofectamine transfection reagent. Twenty-four hours after transfection medium is changed to DME+5% csFBS w/o and treated with compounds in the presence of 0.1 nM progesterone for PR and estradiol for ER. Twenty four hours after treatment, cells are harvested and luciferase assay is performed using dual luciferase assay kit. The firefly values are normalized to renilla luciferase values and represented as a ratio. i. Evaluation of test compound in mouse xenograft model: To examine the in vivo antitumor activity of test compound, tumor growth experiments are performed in a cell line xenograft model. Male NOD SCID Gamma (NSG) mice are housed as five animals per cage and are allowed free access to water and commercial rodent chow. 22RV1 cells (grown in RPMI+10% FBS) mixed with 50% matrigel basement membrane are implanted subcutaneously in castrated mice. Alternatively, an antiandrogen resistant cell line other than 22RV1, such as MR49F or VCaP, is used. Once the tumors reach 200-500 mm^3, the animals are randomized and treated intraperitoneally with vehicle (DMSO:PEG-300:corn oil 10:30:60 ratio) or test compound. […]

[4] = tested on: 22RV1 cells; test: Cell proliferation assay, CellTiter Glo; format: cell-based; conditions: Homo sapiens, 22Rv1, 72 h; cell growth inhibition, three days of treatment
Procedure: (§1) a. […] IC50s were determined using 8 concentrations/compound. […] Ki=IC50/(1+[L]/Kd) c.
(§2) Cells were plated at varying density in the respective growth medium in 96 well plates. 24 hr later, cells were treated, in triplicate or quadruplicate, with test articles prepared in a range of concentrations by series dilution of DMSO stock solutions in growth medium and incubated for three to seven days. The number of viable 22RV1 and HT-29 cells was measured using CellTiter Glo assay (CTG, Promega, Madison, WI) after three days of treatment. Cell viability data were plotted using GraphPad Prism (GraphPad Software, Inc., San Diego, CA). In addition, a nonlinear regression model with a sigmoidal dose response and variable slope within GraphPad Prism was used to calculate the IC50 value of individual test articles.

[5] = tested on: HT-29 cells; test: Cell proliferation assay, CellTiter Glo; format: cell-based; conditions: Homo sapiens, HT-29, 72 h; cell growth inhibition, three days of treatment
Procedure: as §1, §2

[6] = molecular target: AR in LNCaP cytosol (Homo sapiens (Human), UniProt P10275, T878A); test: AR binding assay (3H-methyltrienolone displacement); conditions: read-out: AR IC50, 4° C. for 24 hours
Sequence of AR in LNCaP cytosol (P10275 whole entry T878A): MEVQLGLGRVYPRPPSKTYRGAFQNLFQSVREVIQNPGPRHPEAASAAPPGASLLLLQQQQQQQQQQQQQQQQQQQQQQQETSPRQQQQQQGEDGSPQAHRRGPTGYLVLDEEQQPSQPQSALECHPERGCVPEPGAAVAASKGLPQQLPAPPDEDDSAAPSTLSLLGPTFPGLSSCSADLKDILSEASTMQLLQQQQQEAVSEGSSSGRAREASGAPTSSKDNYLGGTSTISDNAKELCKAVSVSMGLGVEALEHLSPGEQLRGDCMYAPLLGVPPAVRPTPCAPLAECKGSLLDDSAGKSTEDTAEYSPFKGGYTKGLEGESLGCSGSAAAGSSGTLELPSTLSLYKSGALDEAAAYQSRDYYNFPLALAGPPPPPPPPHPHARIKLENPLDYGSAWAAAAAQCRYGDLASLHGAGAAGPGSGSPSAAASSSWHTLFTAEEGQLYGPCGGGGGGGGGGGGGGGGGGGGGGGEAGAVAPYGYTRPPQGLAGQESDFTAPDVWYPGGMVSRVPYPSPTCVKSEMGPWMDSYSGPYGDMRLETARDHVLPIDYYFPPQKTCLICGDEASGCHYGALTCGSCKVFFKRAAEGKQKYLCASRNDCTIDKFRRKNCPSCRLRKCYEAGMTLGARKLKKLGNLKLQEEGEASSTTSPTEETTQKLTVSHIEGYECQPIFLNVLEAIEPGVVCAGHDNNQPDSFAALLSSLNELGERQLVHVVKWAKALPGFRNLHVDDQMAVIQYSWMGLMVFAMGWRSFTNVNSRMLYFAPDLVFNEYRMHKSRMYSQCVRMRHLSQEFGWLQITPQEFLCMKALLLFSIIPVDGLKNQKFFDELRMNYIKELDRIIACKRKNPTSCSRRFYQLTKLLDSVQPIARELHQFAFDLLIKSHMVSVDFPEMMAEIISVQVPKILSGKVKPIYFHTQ
Procedure: as §3

Sequence of ER Alpha-LBD (GST) (P03372 311-547): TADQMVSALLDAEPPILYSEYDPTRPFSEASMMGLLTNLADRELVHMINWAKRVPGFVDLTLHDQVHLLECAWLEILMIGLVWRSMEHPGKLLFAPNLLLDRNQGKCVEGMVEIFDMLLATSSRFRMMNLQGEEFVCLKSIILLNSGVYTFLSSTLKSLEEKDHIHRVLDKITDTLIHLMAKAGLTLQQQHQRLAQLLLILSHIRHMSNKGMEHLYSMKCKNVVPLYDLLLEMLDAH
Sequence of Human recombinant PARP2 (Q9UGN5 whole entry): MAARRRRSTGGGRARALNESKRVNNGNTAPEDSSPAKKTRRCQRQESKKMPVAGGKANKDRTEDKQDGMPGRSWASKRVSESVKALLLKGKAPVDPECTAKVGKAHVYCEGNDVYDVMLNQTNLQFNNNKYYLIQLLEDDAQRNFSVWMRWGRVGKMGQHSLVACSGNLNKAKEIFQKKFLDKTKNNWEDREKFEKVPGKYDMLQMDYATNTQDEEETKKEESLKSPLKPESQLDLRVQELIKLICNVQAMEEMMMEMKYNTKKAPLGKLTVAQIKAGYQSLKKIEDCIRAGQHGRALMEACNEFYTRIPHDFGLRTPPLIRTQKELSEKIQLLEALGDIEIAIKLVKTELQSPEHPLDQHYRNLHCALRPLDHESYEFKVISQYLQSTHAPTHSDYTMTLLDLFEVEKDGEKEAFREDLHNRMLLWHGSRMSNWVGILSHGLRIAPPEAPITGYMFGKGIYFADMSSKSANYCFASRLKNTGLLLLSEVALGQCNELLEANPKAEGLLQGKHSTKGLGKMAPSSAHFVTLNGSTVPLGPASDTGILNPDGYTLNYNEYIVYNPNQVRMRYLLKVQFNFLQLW
Sequence of Human recombinant PARP1 (P09874 whole entry, the tested form may be a part): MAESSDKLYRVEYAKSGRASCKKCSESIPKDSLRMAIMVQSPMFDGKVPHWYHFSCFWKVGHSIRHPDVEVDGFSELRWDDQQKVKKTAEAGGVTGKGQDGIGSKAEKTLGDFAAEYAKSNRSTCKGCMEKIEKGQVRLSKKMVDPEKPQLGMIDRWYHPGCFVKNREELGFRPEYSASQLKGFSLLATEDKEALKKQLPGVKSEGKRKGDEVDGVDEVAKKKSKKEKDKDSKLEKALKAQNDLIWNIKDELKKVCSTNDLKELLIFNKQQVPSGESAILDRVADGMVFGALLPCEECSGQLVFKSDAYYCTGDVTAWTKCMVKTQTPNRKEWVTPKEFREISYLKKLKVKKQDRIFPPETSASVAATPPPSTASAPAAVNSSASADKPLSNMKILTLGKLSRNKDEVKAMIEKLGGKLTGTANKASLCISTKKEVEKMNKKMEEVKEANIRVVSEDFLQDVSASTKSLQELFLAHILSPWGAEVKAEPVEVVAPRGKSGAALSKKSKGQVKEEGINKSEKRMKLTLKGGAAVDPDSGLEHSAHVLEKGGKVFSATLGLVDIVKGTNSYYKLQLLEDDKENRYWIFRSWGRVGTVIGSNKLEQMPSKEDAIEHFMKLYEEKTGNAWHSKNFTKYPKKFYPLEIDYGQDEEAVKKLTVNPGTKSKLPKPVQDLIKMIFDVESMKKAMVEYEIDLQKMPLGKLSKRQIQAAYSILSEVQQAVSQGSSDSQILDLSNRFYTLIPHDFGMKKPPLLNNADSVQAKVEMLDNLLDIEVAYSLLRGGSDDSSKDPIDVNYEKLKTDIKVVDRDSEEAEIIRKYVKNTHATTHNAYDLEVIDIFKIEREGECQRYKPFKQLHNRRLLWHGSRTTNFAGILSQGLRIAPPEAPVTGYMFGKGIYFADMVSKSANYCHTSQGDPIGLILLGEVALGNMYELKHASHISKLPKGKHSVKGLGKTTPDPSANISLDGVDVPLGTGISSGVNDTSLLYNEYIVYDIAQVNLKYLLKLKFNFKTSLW

Compound	IC50 [1]	IC50 [2]	IC50 [3]	IC50 [4]	IC50 [5]	IC50 [6]	Ki ([3]; read-out: ERα Ki)
C[C@H]1Cc2c([nH]c3ccccc23)[C@H](c2c(F)cc(OCCN3CCN(C(=O)c4cc(Cc5n[nH]c(=O)c6ccccc56)ccc4F)CC3)cc2F)N1CC(C)(C)F (stereo in doubt) [Compound 2.51, 4-(3-(4-(2-(3,5-difluoro-4-((1S,3S)-2-(2-fluoro-2-methylpropyl)-3-methyl-2,3,4,9-tetrahydro-1H-pyrido[3,4-b]indol-1-yl)phenoxy)ethyl)piperazine-1-carbonyl)-4-fluorobenzyl)phthalazin-1(2H)-one]	0.004 µM	0.028 µM	0.044 µM				
Cn1ncnc1[C@H]1c2n[nH]c(=O)c3cc(F)cc(c23)N[C@@H]1c1ccc(OC[C@](C)(O)C(=O)Nc2ccc(C#N)c(C(F)(F)F)c2)cc1 [Compound 1.1a, (S)—N-(4-cyano-3-(trifluoromethyl)phenyl)-3-(4-((8S,9R)-5-fluoro-9-(1-methyl-1H-1,2,4-triazol-5-yl)-3-oxo-3,7,8,9-tetrahydro-2H-pyrido[4,3,2-de]phthalazin-8-yl)phenoxy)-2-hydroxy-2-methylpropanamide]	> 1 µM	> 1 µM		> 10 µM	> 10 µM		
Cn1ncnc1[C@@H]1c2n[nH]c(=O)c3cc(F)cc(c23)N[C@H]1c1ccc(OC[C@](C)(O)C(=O)Nc2ccc(C#N)c(C(F)(F)F)c2)cc1 [Compound 1.1b, (S)—N-(4-cyano-3-(trifluoromethyl)phenyl)-3-(4-((8R,9S)-5-fluoro-9-(1-methyl-1H-1,2,4-triazol-5-yl)-3-oxo-3,7,8,9-tetrahydro-2H-pyrido[4,3,2-de]phthalazin-8-yl)phenoxy)-2-hydroxy-2-methylpropanamide]	0.03 µM	0.06 µM		> 10 µM	> 10 µM		
Cn1ncnc1[C@H]1c2n[nH]c(=O)c3cc(F)cc(c23)N[C@@H]1c1ccc(N2C(=S)N(c3ccc(C#N)c(C(F)(F)F)c3)C(=O)C2(C)C)cc1 [Compound 1.2a, 4-(3-(4-((8S,9R)-5-fluoro-9-(1-methyl-1H-1,2,4-triazol-5-yl)-3-oxo-3,7,8,9-tetrahydro-2H-pyrido[4,3,2-de]phthalazin-8-yl)phenyl)-4,4-dimethyl-5-oxo-2-thioxoimidazolidin-1-yl)-2-(trifluoromethyl)benzonitrile]	0.0003 µM			> 10 µM	> 10 µM	> 3.75 µM	
Cn1ncnc1[C@@H]1c2n[nH]c(=O)c3cc(F)cc(c23)N[C@H]1c1ccc(N2C(=S)N(c3ccc(C#N)c(C(F)(F)F)c3)C(=O)C2(C)C)cc1 [Compound 1.2b, 4-(3-(4-((8R,9S)-5-fluoro-9-(1-methyl-1H-1,2,4-triazol-5-yl)-3-oxo-3,7,8,9-tetrahydro-2H-pyrido[4,3,2-de]phthalazin-8-yl)phenyl)-4,4-dimethyl-5-oxo-2-thioxoimidazolidin-1-yl)-2-(trifluoromethyl)benzonitrile]	0.02 µM			> 10 µM	> 10 µM		
CC1(C)C(=O)N(c2ccc(C#N)c(C(F)(F)F)c2)C(=S)N1C1CCN(C(=O)c2cc(Cc3n[nH]c(=O)c4ccccc34)ccc2F)CC1 [Compound 1.3, 4-(3-(1-(2-fluoro-5-((4-oxo-3,4-dihydrophthalazin-1-yl)methyl)benzoyl)piperidin-4-yl)-4,4-dimethyl-5-oxo-2-thioxoimidazolidin-1-yl)-2-(trifluoromethyl)benzonitrile]	0.0006 µM	0.003 µM					
CC/C(=C(/c1ccc(OCCCCCC(=O)N2CCN(C(=O)c3cc(Cc4n[nH]c(=O)c5ccccc45)ccc3F)CC2)cc1)c1ccc2[nH]ncc2c1)c1ccc(Cl)cc1F [Compound 2.49, (E)-4-(3-(4-(6-(4-(2-(4-chloro-2-fluorophenyl)-1-(1H-indazol-5-yl)but-1-en-1-yl)phenoxy)hexanoyl)piperazine-1-carbonyl)-4-fluorobenzyl)phthalazin-1(2H)-one]	0.009 µM	0.204 µM	0.0044 µM				
C[C@@H]1Cc2c([nH]c3ccccc23)[C@@H](c2c(F)cc(OCCCCCC(=O)N3CCN(C(=O)c4cc(Cc5n[nH]c(=O)c6ccccc56)ccc4F)CC3)cc2F)N1CC(C)(C)F [Compound 2.50, 4-(3-(4-(6-(3,5-difluoro-4-((1R,3R)-2-(2-fluoro-2-methylpropyl)-3-methyl-2,3,4,9-tetrahydro-1H-pyrido[3,4-b]indol-1-yl)phenoxy)hexanoyl)piperazine-1-carbonyl)-4-fluorobenzyl)phthalazin-1(2H)-one]	0.003 µM	0.021 µM	0.0057 µM				
CC/C(=C(/c1ccc(OCCCCCCN2CCN(C(=O)c3cc(Cc4n[nH]c(=O)c5ccccc45)ccc3F)CC2)cc1)c1ccc2[nH]ncc2c1)c1ccc(Cl)cc1F [Compound 2.52, (E)-4-(3-(4-(6-(4-(2-(4-chloro-2-fluorophenyl)-1-(1H-indazol-5-yl)but-1-enyl)phenoxy)hexyl)piperazine-1-carbonyl)-4-fluorobenzyl)phthalazin-1(2H)-one]	0.029 µM	0.187 µM	0.0053 µM				
CC/C(=C(/c1ccc(OCCCOCC(=O)N2CCN(C(=O)c3cc(Cc4n[nH]c(=O)c5ccccc45)ccc3F)CC2)cc1)c1ccc2[nH]ncc2c1)c1ccc(Cl)cc1F [Compound 2.53, (E)-4-(3-(4-(2-(3-(4-(2-(4-chloro-2-fluorophenyl)-1-(1H-indazol-5-yl)but-1-enyl)phenoxy)propoxy)acetyl)piperazine-1-carbonyl)-4-fluorobenzyl)phthalazin-1(2H)-one]	0.006 µM	0.095 µM	0.0034 µM				
CC/C(=C(/c1ccc(OCCCOCCN2CCN(C(=O)c3cc(Cc4n[nH]c(=O)c5ccccc45)ccc3F)CC2)cc1)c1ccc2[nH]ncc2c1)c1ccc(Cl)cc1F [Compound 2.54, (E)-4-(3-(4-(2-(3-(4-(2-(4-chloro-2-fluorophenyl)-1-(1H-indazol-5-yl)but-1-enyl)phenoxy)propoxy)ethyl)piperazine-1-carbonyl)-4-fluorobenzyl)phthalazin-1(2H)-one]	0.005 µM	0.04 µM	0.0641 µM				0.0345 µM
